Source: US4327085A, “Biologically active compositions and methods of use” (Agence National de Valorisation de la Recherache (ANVAR), priority 1973, dated 1982)

Experiments:
[1] = system: bovine serum albumin (BSA) antigen; assay: Adjuvant activity in aqueous phase: anti-albumin antibody rate by passive hemagglutination; type: in vivo, Swiss mice; details: S.C., 100 μg with BSA 0.5 mg/animal in isotonic saline
Procedure: In the series of tests of which the results are indicated hereafter, the influence of the active principle according to the invention was assessed as bearing on the anti-albumin antibody rate, particularly under the following conditions.
Groups of 8 two-month-old Swiss mice received by subcutaneous injection (SC) or orally (PO) 0.5 mg of antigen constituted by the bovine serum albumin (BSA) with or without the substance tested in an isotonic saline solution. This large dose of antigen, because of its closeness to the limit paralysing dose with respect to the immunising response, elicits but a weak or no immune response in the controls; it therefore constitutes a severe criterion for showing the activity of an adjuvant substance. Thirty days later, the mice received, by the same method of administration, a further dose containing 0.1 mg of the same antigen.
The proportion of antibody was determined by passive hemagglutination by using sheep red blood cells treated with formalin and coated with the antigen studied according to the method described by A. A. HIRATA and M. W. […] (J. Immunol., 100, 641-648, 1968). Blood samples were taken 14, 28, 34 and 36 days after the first injection.

[2] = system: Klebsiella pneumoniae, strain of capsular type 2, biotype d; assay: Anti-infectious protection of mice against Klebsiella pneumoniae infection; type: in vivo, hybrid mice (C57B1/6×AKR)F1; details: compound iv. 100 μg at -24 h; for % protection: difference of % survivors vs controls

Compound	Titer of antibody 28th day [1]	% survival D + 3 ([2]; K. pneumoniae im. 1,5 × 10^4) [%]	% survival D + 5 ([2]; K. pneumoniae im. 1,5 × 10^4) [%]	% survival D + 10 ([2]; K. pneumoniae im. 1,5 × 10^4) [%]	% protection ([2]; K. pneumoniae im. 1,5 × 10^4) [%]	% survival D + 3 ([2]; K. pneumoniae im. 2 × 10^4) [%]	% survival D + 5 ([2]; K. pneumoniae im. 2 × 10^4) [%]	% survival D + 10 ([2]; K. pneumoniae im. 2 × 10^4) [%]	% protection ([2]; K. pneumoniae im. 2 × 10^4) [%]
CC(=O)N[C@H]1C(O)O[C@H](CO)[C@@H](O)[C@@H]1OCC(=O)N[C@@H](C)C(=O)N[C@H](CCC(=O)O)C(N)=O (stereo partly drawn) [norMur--NAc--L-Ala--D-Glu(OH)--NH2, 2(2-acetamido-2-deoxy-3-O-D-glucopyranosyl)-acetyl-L-alanyl-D-isoglutamine]	25	78	64	60	47	–	–	–	–
CC(=O)N[C@@H]1[C@@H](O[C@H](C)C(=O)N[C@@H](C)C(=O)N[C@H](CCC(=O)O)C(N)=O)[C@H](O)[C@@H](CO)O[C@H]1O [Mur--NAc--L-Ala--D-Glu(OH)--NH2, Mur--NAc--L--Ala--D--Glu(OH)--NH2, reference compound]	25	83	66	60	47	–	–	–	–
CC(=O)N[C@H]1C(O)O[C@H](COC(C)=O)[C@@H](OC(C)=O)[C@@H]1O[C@H](C)C(=O)N[C@@H](C)C(=O)N[C@H](CCC(=O)O)C(N)=O (stereo partly drawn) [4,6-di-O-acetyl--Mur--NAc--L--Ala--D--Glu(OH)--NH2]	–	–	–	–	–	97	84	63	47
CC(=O)N[C@H]1C(O)O[C@H](COC(=O)CCC(=O)O)[C@@H](O)[C@@H]1O[C@H](C)C(=O)N[C@@H](C)C(=O)N[C@H](CCC(=O)O)C(N)=O (stereo partly drawn) [6-O-succinyl-Mur-NAc--L--Ala--D--Glu,(OH)--NH2]	–	–	–	–	–	100	91	63	44
